Measurements published in paper PMC4163382, “Symbiotic Plant Peptides Eliminate Candida albicans Both In Vitro and in an Epithelial Infection Model and Inhibit the Proliferation of Immortalized Human Cells” (BioMed Research International, 2014).

Experiments:
[1] = system: PK E6/E7 vaginal epithelial cells; experiment: Real-Time Cell Analysis (RTCA), proliferation of human epithelial cells; type: cell-based; settings: 3 hours treatment in PBgluc, cell index 40 hours after treatment
Description: (§1) The immortalized human vaginal epithelial cell line PK E6/E7 [15] was cultured in serum-free CKM supplemented with 0.005 μg/mL recombinant epidermal growth factor, 50 μg/mL bovine pituitary extract, L-glutamine, and antibiotic/antimycotic solution (Life Technologies) in a CO2 thermostat at 37°C [16]. Cells at 60–70% confluence were used in subsequent experiments.
Real-Time Cell Analysis (RTCA). 7 × 10^4 PK E6/E7 cells per well were seeded in 96-well E-plates (ACEA Biosciences) in which the bottoms of the wells were covered with microelectrodes and the epithelial cells were allowed to attach to the bottom of the wells for 20 hours. CKM was then aspirated and the cells were treated with 100 μL of the peptides diluted in PBgluc. […] The cell index at the beginning of the measurement after treatment was considered as 100% and values measured at 40 hours were expressed (see Supplementary Figure 1in Supplementary Materials available online at http://dx.doi.org/10.1155/2014/320796). […]
(§2) MTT assays and impedance measurements were performed in at least four technical parallels and two biological replicates; all the data are presented as mean ± standard deviation. Significance was calculated with Newman-Keuls post hoc test using the GraphPad Prism version 5 for Windows and a probability (P) value of less than 0.05 was considered significant.

[2] = system: PK E6/E7 vaginal epithelial cells infected with C. albicans WO-1; experiment: Vaginal epithelial cell - C. albicans coculture (RTCA); type: cell-based, human; settings: PK E6/E7 + C. albicans WO-1, MOI of 5, 3 hours coculture then peptide 3 hours in PBgluc at both 25 and 50 μg/mL, RTCA at 40 hours
Description: PK E6/E7 cells were seeded in 96-well E-plates as described above for RTCA. On the next day, an overnight culture of C. albicans WO-1 was diluted to OD = 1 and let to grow until OD = 1.5–2. The fungal cell suspension was diluted in antibiotic/antimycotic-free CKM and was added to the human cells with a multiplicity of infection (MOI) of 5. After 3 hours of coculture at 37°C, CKM medium was replaced with NCR peptides in PBgluc. After 3 hours of incubation, peptides were removed and 200 μL of fresh antibiotic/antimycotic-free CKM was added. Subsequent measurements were performed as described above.
as §2

[3] = system: PK E6/E7 vaginal epithelial cells; experiment: MTT assay, cytotoxicity on human epithelial cells; type: cell-based; settings: MTT assay, PBgluc, 12.5 to 100 μg/mL, for cationic peptides antifungal concentration range (<25 μg/mL)
Description: as §1
MTT Assay. PK E6/E7 vaginal epithelial cells were seeded in the wells of a 96-well plate at a density of 1 × 10^4 cells per well in a final volume of 100 μL. CKM was then aspirated and 100 μL of the appropriate peptide diluted in PBgluc was added. After 3 hours of incubation at 37°C, the peptide solution was removed, and the cells were let to regenerate in CKM for 24 hours. Then 5 mg/mL 3-[4,5-dimethylthiazol-2-yl]-2,5-diphenyltetrazolium bromide (MTT) was added to each well and the plate was placed to 37°C for 4 hours. The amount of formazan formed by the activity of the mitochondrial succinate dehydrogenase of living cells was measured by using a microtiter plate reader (FLUOstar OPTIMA) at the wavelength of 560 nm.
10 μg/mL of primycin, a macrolide lactone antibiotic complex that rapidly kills PK cells, was used as a control for cytotoxicity in both assays.
as §2

C. albicans WO-1 cells = experiment: Cell permeability assay (calcein release); type: cell-based, Candida albicans; settings: calcein-loaded C. albicans WO-1, 10 mM potassium phosphate buffer pH 7.0, peptide 50 μg/mL, fluorescence 485/530 nm
Description: Cell permeability was monitored by the release of the intracellularly accumulated dye calcein. Overnight C. albicans WO-1 cells were washed twice with and resuspended in 10 mM potassium phosphate buffer (pH = 7.0) at a concentration of 10^7 cells mL^−1. Cells were loaded with acetomethoxy-calcein at a final concentration of 5 μM for 2 hours at room temperature. Cells were washed three times to remove the extracellular dye and then 100 μL of the suspension was transferred to FIA black 96-well plates. NCR peptides were then added at a concentration of 50 mg/L, and the release of calcein (formed by the cells' esterases) was measured by its fluorescence in a microtiter plate reader (FLUOstar OPTIMA) at excitation and emission wavelengths of 485 nm and 530 nm, respectively. Calcein efflux was calculated as previously reported.

Q: With “AFERTETRMLTIPCTSDANCPKVISPCHTKCFDGFCGWYIEGSYEGP [NCR001, anionic chemically synthesized mature NCR peptide of Medicago truncatula]” as the sequence, how does the “Effect on proliferation of the human cells” value [1] read?
A: no negative effect

Q: What about the “Prevention of C. albicans induced epithelial cell death” value [2] of the same sequence?
A: unable to prevent vaginal epithelial cell death

Q: What about the “Effect on viability of the human cells” value [3] of the same sequence?
A: no negative effect

Q: What about the “Calcein (dye) efflux” value (C. albicans WO-1 cells) of the same sequence?
A: no calcein release
